ChEMBL document CHEMBL5518185, “Design, synthesis and antitumor activity of 4-arylamine substituted pyrimidine derivatives as noncovalent EGFR inhibitors overcoming C797S mutation” (Eur J Med Chem, 2024)
Calls of active or inactive are those of the source. The calls are words filed in the database; no cut-off is given here.

Tests used:
HCC827 [1] = assay: Antiproliferative activity against human HCC827 cells assessed as inhibition of cell growth measured after 72 hrs by MTT assay; type: functional, cell-based; settings: HCC827, 72 h
NCI-H1975 = assay: Antiproliferative activity against human NCI-H1975 cells assessed as inhibition of cell growth measured after 72 hrs by MTT assay; type: functional, cell-based; settings: NCI-H1975, 72 h
A549 = assay: Antiproliferative activity against human A549 cells assessed as inhibition of cell growth measured after 72 hrs by MTT assay; type: functional, cell-based; settings: A549, 72 h
[2] = biological target: T1, Epidermal growth factor receptor (Homo sapiens, UniProt P00533); assay: Inhibition of wild type EGFR (unknown origin) preincubated for 10 mins followed by substrate addition and measured after 50 mins in presence of ATP by HTRF assay
T1 sequence (P00533 whole entry): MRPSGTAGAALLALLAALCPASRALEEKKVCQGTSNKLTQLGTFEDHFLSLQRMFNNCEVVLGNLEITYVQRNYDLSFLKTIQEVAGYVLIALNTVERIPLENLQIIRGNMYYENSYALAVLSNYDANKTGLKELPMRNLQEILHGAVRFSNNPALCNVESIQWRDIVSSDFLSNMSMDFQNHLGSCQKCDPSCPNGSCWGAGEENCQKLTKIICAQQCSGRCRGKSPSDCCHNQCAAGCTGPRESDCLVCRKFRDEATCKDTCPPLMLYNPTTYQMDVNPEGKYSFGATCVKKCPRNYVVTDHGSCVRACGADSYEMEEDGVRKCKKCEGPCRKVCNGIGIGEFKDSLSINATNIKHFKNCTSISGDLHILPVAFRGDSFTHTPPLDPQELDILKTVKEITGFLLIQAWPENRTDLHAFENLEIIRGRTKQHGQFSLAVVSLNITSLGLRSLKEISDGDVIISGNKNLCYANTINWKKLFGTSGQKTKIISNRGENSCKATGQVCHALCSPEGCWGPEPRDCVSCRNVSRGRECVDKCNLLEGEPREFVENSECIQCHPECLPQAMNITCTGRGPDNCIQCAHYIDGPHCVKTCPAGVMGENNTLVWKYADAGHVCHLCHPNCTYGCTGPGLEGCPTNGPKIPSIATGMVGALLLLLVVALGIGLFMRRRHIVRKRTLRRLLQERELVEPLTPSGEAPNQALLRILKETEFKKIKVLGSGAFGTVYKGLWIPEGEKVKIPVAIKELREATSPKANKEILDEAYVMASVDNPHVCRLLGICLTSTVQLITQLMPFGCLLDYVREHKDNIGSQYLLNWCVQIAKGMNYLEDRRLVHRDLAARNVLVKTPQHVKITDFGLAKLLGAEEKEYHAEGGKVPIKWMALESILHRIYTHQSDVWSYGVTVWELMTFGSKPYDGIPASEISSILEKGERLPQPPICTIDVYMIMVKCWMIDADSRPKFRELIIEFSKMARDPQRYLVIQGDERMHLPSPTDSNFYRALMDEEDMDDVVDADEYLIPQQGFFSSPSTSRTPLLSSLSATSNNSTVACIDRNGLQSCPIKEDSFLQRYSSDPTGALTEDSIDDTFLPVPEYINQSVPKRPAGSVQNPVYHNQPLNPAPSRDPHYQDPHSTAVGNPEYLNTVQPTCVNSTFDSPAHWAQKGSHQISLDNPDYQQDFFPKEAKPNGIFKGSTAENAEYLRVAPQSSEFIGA

[3] = biological target: Epidermal growth factor receptor (Homo sapiens, UniProt P00533, EX19DEL/T790M); assay: Inhibition of EGFR Del19/T790M (unknown origin) preincubated for 10 mins followed by substrate addition and measured after 50 mins in presence of ATP by HTRF assay
[4] = biological target: Epidermal growth factor receptor (Homo sapiens, UniProt P00533, L858R/T790M); assay: Inhibition of EGFR L858R/T790M (unknown origin) preincubated for 10 mins followed by substrate addition and measured after 50 mins in presence of ATP by HTRF assay
[5] = biological target: Epidermal growth factor receptor (Homo sapiens, UniProt P00533, C797S/EX19DEL/T790M); assay: Inhibition of EGFR Del19/T790M/C797S triple mutant (unknown origin) preincubated for 10 mins followed by substrate addition and measured after 50 mins in presence of ATP by HTRF assay
[6] = biological target: Epidermal growth factor receptor (Homo sapiens, UniProt P00533, C797S/L858R/T790M); assay: Inhibition of EGFR L858R/T790M/C797S triple mutant (unknown origin) preincubated for 10 mins followed by substrate addition and measured after 50 mins in presence of ATP by HTRF assay
[7] = biological target: T1, Epidermal growth factor receptor; assay: Inhibition of wild type EGFR (unknown origin) at 100 nM preincubated for 10 mins followed by substrate addition and measured after 50 mins in presence of ATP by HTRF assay relative to control; settings: time 60.0 min
[8] = biological target: Tyrosine-protein kinase ABL1 (Homo sapiens) (UniProt P00519); assay: Inhibition of Abl (unknown origin) by HTRF assay relative to control; settings: concentration not given here
Tyrosine-protein kinase ABL1 (Homo sapiens), sequence (P00519 whole entry): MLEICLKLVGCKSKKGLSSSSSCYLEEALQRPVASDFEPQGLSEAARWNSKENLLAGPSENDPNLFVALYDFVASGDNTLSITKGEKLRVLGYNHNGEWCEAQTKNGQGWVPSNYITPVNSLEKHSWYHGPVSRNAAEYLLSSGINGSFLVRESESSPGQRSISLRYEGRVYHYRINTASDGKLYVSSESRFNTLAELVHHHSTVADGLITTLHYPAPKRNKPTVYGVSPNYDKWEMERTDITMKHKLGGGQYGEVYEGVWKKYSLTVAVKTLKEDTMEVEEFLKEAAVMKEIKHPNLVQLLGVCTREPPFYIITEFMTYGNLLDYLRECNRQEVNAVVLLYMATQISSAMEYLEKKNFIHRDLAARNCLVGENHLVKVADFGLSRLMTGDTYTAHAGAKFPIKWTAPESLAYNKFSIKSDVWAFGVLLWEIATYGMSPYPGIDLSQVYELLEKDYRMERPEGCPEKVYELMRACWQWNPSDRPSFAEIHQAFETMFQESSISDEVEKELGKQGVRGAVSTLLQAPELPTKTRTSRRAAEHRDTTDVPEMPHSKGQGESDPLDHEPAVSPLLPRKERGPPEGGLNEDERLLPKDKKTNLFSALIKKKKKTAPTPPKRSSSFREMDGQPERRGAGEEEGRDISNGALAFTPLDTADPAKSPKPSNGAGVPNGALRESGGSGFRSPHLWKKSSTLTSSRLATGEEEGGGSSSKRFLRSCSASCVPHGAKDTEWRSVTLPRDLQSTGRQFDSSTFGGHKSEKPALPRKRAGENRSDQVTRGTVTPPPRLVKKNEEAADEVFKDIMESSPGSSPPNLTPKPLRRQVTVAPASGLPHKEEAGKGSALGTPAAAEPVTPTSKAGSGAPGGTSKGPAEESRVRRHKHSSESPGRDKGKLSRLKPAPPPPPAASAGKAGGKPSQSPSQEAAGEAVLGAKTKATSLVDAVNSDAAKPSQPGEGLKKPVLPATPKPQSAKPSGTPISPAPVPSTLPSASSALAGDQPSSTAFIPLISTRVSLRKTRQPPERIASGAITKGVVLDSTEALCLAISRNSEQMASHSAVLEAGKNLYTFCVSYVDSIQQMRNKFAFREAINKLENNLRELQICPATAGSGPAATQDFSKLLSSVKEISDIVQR

Homo sapiens [9] = organism: Homo sapiens; assay: Inhibition of Akt (unknown origin) by HTRF assay relative to control; settings: concentration not given here
[10] = biological target: Tyrosine-protein kinase BTK (Homo sapiens) (UniProt Q06187); assay: Inhibition of BTK (unknown origin) by HTRF assay relative to control; settings: concentration not given here
Tyrosine-protein kinase BTK (Homo sapiens), sequence (Q06187 whole entry): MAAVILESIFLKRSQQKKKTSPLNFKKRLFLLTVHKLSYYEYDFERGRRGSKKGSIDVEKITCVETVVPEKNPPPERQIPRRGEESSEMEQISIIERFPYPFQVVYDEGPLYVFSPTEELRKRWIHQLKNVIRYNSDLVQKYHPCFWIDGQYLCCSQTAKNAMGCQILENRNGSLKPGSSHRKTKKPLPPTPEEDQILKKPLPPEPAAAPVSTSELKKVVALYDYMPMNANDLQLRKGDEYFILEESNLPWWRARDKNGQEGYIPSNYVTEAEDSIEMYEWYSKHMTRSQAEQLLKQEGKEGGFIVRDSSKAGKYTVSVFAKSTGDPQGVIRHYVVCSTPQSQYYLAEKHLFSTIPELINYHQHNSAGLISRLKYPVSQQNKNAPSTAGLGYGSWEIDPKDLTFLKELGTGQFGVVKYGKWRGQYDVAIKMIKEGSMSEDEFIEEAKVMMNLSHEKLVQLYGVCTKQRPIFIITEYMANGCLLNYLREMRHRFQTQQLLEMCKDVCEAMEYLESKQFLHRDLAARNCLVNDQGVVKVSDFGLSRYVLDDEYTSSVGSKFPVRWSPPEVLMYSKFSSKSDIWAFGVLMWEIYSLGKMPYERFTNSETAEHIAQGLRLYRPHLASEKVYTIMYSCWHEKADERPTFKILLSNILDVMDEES

[11] = biological target: Mast/stem cell growth factor receptor Kit (Homo sapiens) (UniProt P10721); assay: Inhibition of c-kit (unknown origin) by HTRF assay relative to control; settings: concentration not given here
Homo sapiens [12] = organism: Homo sapiens; assay: Inhibition of FGFR (unknown origin) by HTRF assay relative to control; settings: concentration not given here
[13] = biological target: Insulin-like growth factor 1 receptor (Homo sapiens) (UniProt P08069); assay: Inhibition of IGF-1R (unknown origin) by HTRF assay relative to control; settings: concentration not given here
[14] = biological target: Dual specificity mitogen-activated protein kinase kinase; MEK1/2 (Homo sapiens) (UniProt P36507+Q02750); assay: Inhibition of MEK1/2 (unknown origin) by HTRF assay relative to control; type: protein assay; settings: concentration not given here
[15] = biological target: Serine/threonine-protein kinase mTOR (Homo sapiens) (UniProt P42345); assay: Inhibition of mTOR (unknown origin) by HTRF assay relative to control; settings: concentration not given here
[16] = biological target: Platelet-derived growth factor receptor alpha (Homo sapiens) (UniProt P16234); assay: Inhibition of PDGFR alpha (unknown origin) by HTRF assay relative to control; settings: concentration not given here
[17] = biological target: RAF proto-oncogene serine/threonine-protein kinase (Homo sapiens) (UniProt P04049); assay: Inhibition of c-RAF (unknown origin) by HTRF assay relative to control; settings: concentration not given here
RAF proto-oncogene serine/threonine-protein kinase (Homo sapiens), sequence (P04049 whole entry): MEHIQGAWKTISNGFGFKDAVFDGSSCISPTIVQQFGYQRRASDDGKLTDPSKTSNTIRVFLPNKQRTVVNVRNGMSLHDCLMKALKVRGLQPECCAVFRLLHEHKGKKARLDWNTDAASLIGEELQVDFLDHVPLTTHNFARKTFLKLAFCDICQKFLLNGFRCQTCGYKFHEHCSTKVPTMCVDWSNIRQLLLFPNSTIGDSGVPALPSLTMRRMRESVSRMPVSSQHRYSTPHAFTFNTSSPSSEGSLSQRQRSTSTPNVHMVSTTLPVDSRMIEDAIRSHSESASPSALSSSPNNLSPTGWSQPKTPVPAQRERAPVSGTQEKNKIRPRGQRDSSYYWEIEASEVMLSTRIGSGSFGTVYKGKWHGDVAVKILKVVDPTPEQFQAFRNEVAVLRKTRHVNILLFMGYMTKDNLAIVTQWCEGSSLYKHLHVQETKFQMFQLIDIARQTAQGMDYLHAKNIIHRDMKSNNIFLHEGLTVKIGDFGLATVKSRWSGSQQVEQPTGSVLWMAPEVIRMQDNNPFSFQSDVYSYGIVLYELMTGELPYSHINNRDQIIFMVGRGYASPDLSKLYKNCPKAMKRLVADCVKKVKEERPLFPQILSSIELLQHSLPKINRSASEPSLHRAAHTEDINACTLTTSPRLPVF

[18] = biological target: Proto-oncogene tyrosine-protein kinase ROS (Homo sapiens) (UniProt P08922); assay: Inhibition of ROS (unknown origin) by HTRF assay relative to control; settings: concentration not given here
[19] = biological target: Proto-oncogene tyrosine-protein kinase Src (Homo sapiens) (UniProt P12931); assay: Inhibition of Src (unknown origin) by HTRF assay relative to control; settings: concentration not given here
Homo sapiens [20] = organism: Homo sapiens; assay: Inhibition of VGFR (unknown origin) by HTRF assay relative to control; settings: concentration not given here
[21] = Cytotoxicity against human 2BS cells assessed as inhibition of cell viability measured after 72 hrs by MTT assay; type: toxicity, cell-based
[22] = Cytotoxicity against human L02 cells assessed as inhibition of cell viability measured after 72 hrs by MTT assay; type: toxicity, cell-based
HCC827 [23] = assay: Inhibition of colony formation in human HCC827 cells at 10 to 100 nM measured after 14 days by crystal violet staining based analysis; type: functional, cell-based; settings: dose 10-100 nM, time 14.0 day
HCC827 [24] = assay: Induction of cell cycle arrest in human HCC827 cells assessed as accumulation of cells at G0/G1 phase at 10 nM measured after 24 hrs by PI staining based flow cytometry analysis (reference value: 54.36%); type: functional
HCC827 [25] = assay: Induction of cell cycle arrest in human HCC827 cells assessed as accumulation of cells at G0/G1 phase at 30 nM measured after 24 hrs by PI staining based flow cytometry analysis (reference value: 54.36%); type: functional
HCC827 [26] = assay: Induction of cell cycle arrest in human HCC827 cells assessed as accumulation of cells at G0/G1 phase at 100 nM measured after 24 hrs by PI staining based flow cytometry analysis (reference value: 54.36%); type: functional
HCC827 [27] = assay: Induction of cell cycle arrest in human HCC827 cells assessed as accumulation of cells at S phase at 10 nM measured after 24 hrs by PI staining based flow cytometry analysis (reference value: 28.81%); type: functional
HCC827 [28] = assay: Induction of cell cycle arrest in human HCC827 cells assessed as accumulation of cells at S phase at 30 nM measured after 24 hrs by PI staining based flow cytometry analysis (reference value: 28.81%); type: functional
HCC827 [29] = assay: Induction of cell cycle arrest in human HCC827 cells assessed as accumulation of cells at S phase at 100 nM measured after 24 hrs by PI staining based flow cytometry analysis (reference value: 28.81%); type: functional
HCC827 [30] = assay: Induction of cell cycle arrest in human HCC827 cells assessed as accumulation of cells at G2/M phase at 10 nM measured after 24 hrs by PI staining based flow cytometry analysis (reference value: 16.83%); type: functional
HCC827 [31] = assay: Induction of cell cycle arrest in human HCC827 cells assessed as accumulation of cells at G2/M phase at 30 nM measured after 24 hrs by PI staining based flow cytometry analysis (reference value: 16.83%); type: functional
HCC827 [32] = assay: Induction of cell cycle arrest in human HCC827 cells assessed as accumulation of cells at G2/M phase at 100 nM measured after 24 hrs by PI staining based flow cytometry analysis (reference value: 16.83%); type: functional
[33] = system: Epidermal growth factor receptor (Homo sapiens), P00533 [UNDEFINED MUTATION]; settings: dose 100.0 nM
Epidermal growth factor receptor (Homo sapiens), P00533 [UNDEFINED MUTATION], sequence (P00533 whole entry, looked up, change not shown): as the sequence (P00533 whole entry) above

[34] = system: Epidermal growth factor receptor (Homo sapiens), P00533 [UNDEFINED MUTATION]; settings: dose 30.0 nM
[35] = Inhibition of ERK (unknown origin) by HTRF assay relative to control; settings: Homo sapiens; concentration not given here

With `O=C(NO)c1ccsc1Nc1nc(Nc2ccc(N3CCOCC3)cc2)ncc1Cl` as the compound, how does the IC50 (HCC827 [1]) read?
The IC50 was 31 nM.

What about the IC50 (NCI-H1975) of the same compound?
Its IC50 is 135 nM.

What about the IC50 (A549) of the same compound?
The IC50 was 230 nM.

And the IC50 [2]?
The IC50 was 34.4 nM.

What about the IC50 [3] of the same compound?
Its IC50 is 897 nM.

What about the IC50 [4] of the same compound?
The IC50 was 72.3 nM.

What about the IC50 [5] of the same compound?
Its IC50 is 37.9 nM.

What about the IC50 [6] of the same compound?
The IC50 was 26.7 nM.

And the inhibition [7]?
The inhibition was 83.6%.

And the inhibition [8]?
Its inhibition is less than 70%.

And the inhibition (Homo sapiens [9])?
The inhibition was less than 70%.

And the inhibition [10]?
The inhibition was less than 70%.

What about the inhibition [11] of the same compound?
The inhibition was less than 70%.

What about the inhibition (Homo sapiens [12]) of the same compound?
The inhibition was less than 70%.

What about the inhibition [13] of the same compound?
The inhibition was less than 70%.

And the inhibition [14]?
The inhibition was less than 70%.

And the inhibition [15]?
Its inhibition is less than 70%.

What about the inhibition [16] of the same compound?
Its inhibition is less than 70%.

And the inhibition [17]?
The inhibition was less than 70%.

What about the inhibition [18] of the same compound?
The inhibition was less than 70%.

And the inhibition [19]?
Its inhibition is less than 70%.

And the inhibition (Homo sapiens [20])?
Its inhibition is less than 70%.

What about the IC50 at 72 h [21] of the same compound?
The IC50 at 72 h was 15200 nM.

What about the IC50 at 72 h [22] of the same compound?
Its IC50 at 72 h is 5030 nM.

What about the inhibition (HCC827 [23]) of the same compound?
The inhibition was “Active”.

What about the Activity (HCC827 [24]) of the same compound?
Its Activity is 64.32%.

What about the Activity (HCC827 [25]) of the same compound?
The Activity was 65.79%.

What about the Activity (HCC827 [26]) of the same compound?
The Activity was 59.28%.

And the Activity (HCC827 [27])?
Its Activity is 20.21%.

And the Activity (HCC827 [28])?
The Activity was 14.08%.

What about the Activity (HCC827 [29]) of the same compound?
Its Activity is 15.6%.

What about the Activity (HCC827 [30]) of the same compound?
Its Activity is 15.47%.

And the Activity (HCC827 [31])?
Its Activity is 20.13%.

And the Activity (HCC827 [32])?
Its Activity is 25.12%.

And the inhibition [33]?
The inhibition was 73.3%.

What about the inhibition [34] of the same compound?
The inhibition was 47.8%.

And the inhibition [35]?
The inhibition was less than 70%.
